Patent publication US20220016144A1, “STABLE AQUEOUS COMPOSITION COMPRISING OLIGOSACCHARIDES” (SOCIETE DES PRODUITS NESTLE S.A., priority 2018, published 2022)

Assay: Example 2: HPLC analysis of oligosaccharides, fructose isomers and lactose at pH 6 and 7 over aseptic filling and room temperature storage
Format: physicochemical
Procedure: Oligosaccharides 2′Fucosyllactose (2′FL) and Lacto-N-neotetraose (LNnT) were mixed in a 10:1 ratio (w/w) and dissolved in water to a final concentration of 10% (w/v). Out of this solution, […] samples were generated respectively having pH 6 and 7 (by addition of KOH) Such samples were subjected to heat treatment (UHT) followed by aseptic filling of small monodose bottles. Solutions at different pHs were analysed before and after filling of bottles as well as after different times of storage at room temperature (21-26° C.). Analysis was done by HPLC using a TSK gel Amide-80 (150 mm×4.6 mm, particle size: 3 μm) column and detection via a charged aerosol detector. F or 2′FL (FIG. 2a), LNnT (FIG. 2d), the fructose isomers of the added 2′FL (indicated as FL lactulose in the graphs, FIG. 2d) and of added LNnT (indicated as LNnT isomer in the graphs, FIG. 2e) as well as for their degradation products (lactose, FIG. 2c). The pH of the solution was also measured. All data are expressed as % of added oligosaccharides.

LNnT isomers formation (pH 6, compared with pH 7): much lower | oligosaccharide amounts at aseptic filling and over time (pH 6, UHT, aseptic filling, storage at 21-26° C., 2′FL:LNnT 10:1, 10% w/v): much more stable
SMILES: CC(=O)N[C@H]1[C@H](O[C@H]2[C@@H](O)[C@@H](CO)O[C@@H](O[C@H]3[C@H](O)[C@@H](O)C(O)O[C@@H]3CO)[C@@H]2O)O[C@H](CO)[C@@H](O[C@@H]2O[C@H](CO)[C@H](O)[C@H](O)[C@H]2O)[C@@H]1O (mixture of isomers) [LNnT, lacto-N-neotetraose]
